Experiments:
Format in all cases: biochemical
[1] = target: T1, PDGFRβ kinase (Homo sapiens, UniProt P09619); test: In vitro PDGFRβ kinase assay; settings: ADP Quest assay, poly Glu:Tyr substrate, 60 μM ATP
T1 construct: purchased Invitrogen Inc. P3082
Protocol: (§1) In vitro vegfr2 and PDGFRβ Kinase Assays
(§2) 2.5 μl of ADP Quest assay buffer (DiscoverX Inc., cat. #90-0071) containing 20 ng VEGFR2 kinase (Invitrogen Inc, cat. #PV3660) or 25 ng PDGFRβ kinase (Invitrogen Inc., cat. #P3082) is dispensed to wells of a 1536 multi-well, black solid plate. 60 nl of 100× concentration of test compound in DMSO is dispensed to the well by passive pin transfer and incubated for 10 minutes at room temperature (approx. 22° C.). 2.5 μl of ADP Quest assay buffer containing 0.25 μg of poly Glu:Tyr (4:1) substrate peptide (Upstate Inc., cat. #12-440) and 60 μM ATP is then dispensed and the kinase reaction allowed to incubate at 30° C. for 2 hours. The assay plates are sealed and maintained in a humidified environment. After the 2 hour incubation, 2 μl of ADP Quest assay reagent A, followed by 2 μl of assay reagent B, is added. After an additional 30 minute incubation at room temperature, fluorescence intensity is measured on a Molecular Devices Aquest multi-mode plate reader or other suitable plate reader (fluorescence excitation filter: 530/25 [Peak (nm)/FWHM passband (nm)]; dichroic beamsplitter: 561 nm longpass; fluorescence emission filter: 580/10 [Peak (nm)/FWHM passband (nm)]. The assay measures the conversion of a non-fluoresecent molecule to fluorescent resorutin, which correlates with kinase activity. Negative control activity is measured with DMSO lacking any test compound. The positive control is [N-(3-trifluoromethyl-4-chlorophenyl)-N′-(4-(2-methylcarbamoyl-pyridin-4-yl)oxyphenyl)urea], aka Bay 43-9006. Efficacy is measured as a percentage of positive control activity.

[2] = target: T2, human B-Raf protein kinase (Homo sapiens, UniProt P15056); test: In vitro B-Raf/Mek1 composite kinase assay; settings: recombinant GST-tagged human B-Raf (Δ1-415) with inactive Mek1, 2 μM ATP
T2 construct: GST (N); purchased Upstate Inc. 14-530 (B-Raf); 14-420 (Mek1)
T2 sequence (P15056 416-766): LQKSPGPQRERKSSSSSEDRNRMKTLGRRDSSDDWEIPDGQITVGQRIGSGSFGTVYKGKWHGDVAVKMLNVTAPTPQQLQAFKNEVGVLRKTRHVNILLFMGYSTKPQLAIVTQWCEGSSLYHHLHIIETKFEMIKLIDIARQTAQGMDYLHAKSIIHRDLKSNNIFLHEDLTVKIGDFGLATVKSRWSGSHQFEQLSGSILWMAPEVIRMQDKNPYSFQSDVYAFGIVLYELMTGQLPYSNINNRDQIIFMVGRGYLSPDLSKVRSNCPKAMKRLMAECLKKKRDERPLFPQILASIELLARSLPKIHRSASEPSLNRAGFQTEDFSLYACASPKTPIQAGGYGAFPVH
Protocol: In Vitro B-Raf/Mek1 Composite Kinase Assay
2.5 μl of B-Raf kinase buffer (20 mM MOPS [pH 7.2], 25 mM sodium glycerophosphate, 2 mM EGTA [pH 8.0], 1 mM sodium orthovanadate, 1 mM dithiothreitol, 10 mM MgCl2, 0.03% Brij-35, 0.3 mg/ml bovine serum albumin) containing 1 ng of recombinant, N-terminal GST-tagged human B-Raf protein kinase (Δ1-415, Upstate Inc., cat. #14-530) is dispensed to wells of a 1536 multi-well white solid plate. 60 nl of 100× concentration of test compound in DMSO is dispensed to the well by passive pin transfer and incubated for 15 minutes at room temperature (approx. 22° C.). […] The assay plates are sealed and maintained in a humidified environment. After 2 hours, 2.5 μl of PKLight protein kinase assay reagent (Cambrex, cat. #LT07-501) is dispensed. After an additional 5 minute incubation at room temperature, luminescence activity is measured on a Molecular Devices Analyst multi-mode plate reader or other suitable plate reader. Kinase inhibition results in less ATP depletion, and therefore increased luminescence signal. Negative control activity is measured with DMSO lacking any test compound. The positive control is [N-(3-trifluoromethyl-4-chlorophenyl)-N′-(4-(2-methylcarbamoyl-pyridin-4-yl)oxyphenyl)urea], aka Bay 43-9006. Efficacy is measured as a percentage of positive control activity.

[3] = target: T3, VEGFR2 kinase (Homo sapiens, UniProt P35968); test: In vitro VEGFR2 kinase assay; settings: ADP Quest assay, poly Glu:Tyr substrate, 60 μM ATP
T3 construct: purchased Invitrogen Inc PV3660
T3 sequence (P35968 20-1356): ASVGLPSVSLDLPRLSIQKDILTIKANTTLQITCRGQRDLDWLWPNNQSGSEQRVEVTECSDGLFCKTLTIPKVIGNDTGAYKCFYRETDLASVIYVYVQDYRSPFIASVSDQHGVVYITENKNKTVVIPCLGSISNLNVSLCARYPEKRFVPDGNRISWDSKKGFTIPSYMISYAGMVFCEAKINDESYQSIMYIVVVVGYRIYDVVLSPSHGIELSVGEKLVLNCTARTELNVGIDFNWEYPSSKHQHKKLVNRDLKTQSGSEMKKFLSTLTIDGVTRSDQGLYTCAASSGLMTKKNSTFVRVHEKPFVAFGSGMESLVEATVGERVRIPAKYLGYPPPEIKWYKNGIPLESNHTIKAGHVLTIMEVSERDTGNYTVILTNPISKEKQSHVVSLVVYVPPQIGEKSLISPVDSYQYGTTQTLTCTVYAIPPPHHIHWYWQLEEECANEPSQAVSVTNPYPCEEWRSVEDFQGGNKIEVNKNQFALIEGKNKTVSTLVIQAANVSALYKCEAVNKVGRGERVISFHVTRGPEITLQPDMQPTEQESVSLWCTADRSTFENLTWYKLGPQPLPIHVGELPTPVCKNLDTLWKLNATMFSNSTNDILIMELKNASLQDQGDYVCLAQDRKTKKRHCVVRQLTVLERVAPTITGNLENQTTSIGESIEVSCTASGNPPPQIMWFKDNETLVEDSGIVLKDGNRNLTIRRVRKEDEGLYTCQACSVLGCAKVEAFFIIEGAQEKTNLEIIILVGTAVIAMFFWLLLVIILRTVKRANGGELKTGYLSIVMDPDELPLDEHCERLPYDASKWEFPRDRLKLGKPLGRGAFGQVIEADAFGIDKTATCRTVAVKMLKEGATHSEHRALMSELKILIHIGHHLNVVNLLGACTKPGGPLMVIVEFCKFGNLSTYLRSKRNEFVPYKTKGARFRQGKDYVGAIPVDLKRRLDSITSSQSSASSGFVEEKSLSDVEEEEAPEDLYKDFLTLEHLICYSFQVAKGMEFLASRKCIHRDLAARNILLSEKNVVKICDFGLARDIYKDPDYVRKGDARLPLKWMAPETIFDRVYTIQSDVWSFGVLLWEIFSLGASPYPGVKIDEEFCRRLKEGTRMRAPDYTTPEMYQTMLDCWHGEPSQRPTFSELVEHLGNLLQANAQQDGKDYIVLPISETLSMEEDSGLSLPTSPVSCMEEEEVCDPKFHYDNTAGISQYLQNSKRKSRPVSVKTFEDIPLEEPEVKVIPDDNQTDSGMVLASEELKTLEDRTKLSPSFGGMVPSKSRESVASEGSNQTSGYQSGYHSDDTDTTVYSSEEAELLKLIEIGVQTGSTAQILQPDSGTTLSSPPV
Protocol: as §1, §2

T1 sequence (P09619 33-1106): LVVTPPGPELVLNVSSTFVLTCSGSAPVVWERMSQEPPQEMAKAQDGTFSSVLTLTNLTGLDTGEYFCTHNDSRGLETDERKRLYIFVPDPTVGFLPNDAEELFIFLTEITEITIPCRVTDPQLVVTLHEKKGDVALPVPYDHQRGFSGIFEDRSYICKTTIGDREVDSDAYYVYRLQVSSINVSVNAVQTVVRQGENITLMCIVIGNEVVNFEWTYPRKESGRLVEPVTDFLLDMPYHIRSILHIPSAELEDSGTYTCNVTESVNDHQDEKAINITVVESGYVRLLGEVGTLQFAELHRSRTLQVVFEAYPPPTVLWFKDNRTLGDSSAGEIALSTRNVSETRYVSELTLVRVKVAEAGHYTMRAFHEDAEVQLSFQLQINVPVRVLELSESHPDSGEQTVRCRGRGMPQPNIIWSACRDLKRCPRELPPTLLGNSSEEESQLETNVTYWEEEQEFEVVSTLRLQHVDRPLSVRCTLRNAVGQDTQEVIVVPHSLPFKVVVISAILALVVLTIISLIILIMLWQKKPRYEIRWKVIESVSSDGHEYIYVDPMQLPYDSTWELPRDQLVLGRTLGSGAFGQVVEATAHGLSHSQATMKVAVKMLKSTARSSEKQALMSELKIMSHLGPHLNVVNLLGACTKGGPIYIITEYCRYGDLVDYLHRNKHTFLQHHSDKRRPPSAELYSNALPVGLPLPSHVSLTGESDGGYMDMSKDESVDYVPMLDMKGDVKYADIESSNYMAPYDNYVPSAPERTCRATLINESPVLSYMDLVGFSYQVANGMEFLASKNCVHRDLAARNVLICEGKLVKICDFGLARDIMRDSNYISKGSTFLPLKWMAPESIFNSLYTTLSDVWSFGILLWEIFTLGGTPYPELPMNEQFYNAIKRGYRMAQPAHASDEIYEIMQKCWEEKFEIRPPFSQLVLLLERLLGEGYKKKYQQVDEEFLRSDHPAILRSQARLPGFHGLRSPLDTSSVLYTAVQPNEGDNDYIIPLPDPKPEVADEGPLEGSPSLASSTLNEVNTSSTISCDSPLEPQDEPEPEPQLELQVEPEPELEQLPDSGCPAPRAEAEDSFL

| SMILES | IC50 [1] [µM] | IC50 [2] [µM] | IC50 [3] [µM] |
| --- | --- | --- | --- |
| Cn1cc(-c2nccc(Oc3ccc(NC(=O)Nc4ccc(Cl)c(C(F)(F)F)c4)c(F)c3)n2)cn1 [Example 88, 1-(4-Chloro-3-(trifluoromethyl)phenyl)-3-(2-fluoro-4-(2-(1-methyl-1H-pyrazol-4-yl)pyrimidin-4-yloxy)phenyl)urea] | ≤ 10 | ≤ 10 | ≤ 10 |
| CN(C(=O)Nc1ccc(Oc2ccnc(-c3nnco3)c2)cc1)c1ccc(Cl)c(C(F)(F)F)c1 [Example 108, 3-(4-(2-(1,3,4-Oxadiazol-2-yl)pyridin-4-yloxy)phenyl)-1-(4-chloro-3-(trifluoromethyl)phenyl)-1-methylurea] | > 10 | > 10 | > 10 |
| O=C(Nc1cccc(Oc2cc(-c3nnn[nH]3)ncn2)c1)Nc1ccc(Cl)c(C(F)(F)F)c1 [Example 19, 1-(3-(6-(1H-Tetrazol-5-yl)pyrimidin-4-yloxy)phenyl)-3-(4-chloro-3-(trifluoromethyl)phenyl)urea] | ≤ 10 | > 10 | ≤ 10 |
| O=C(Nc1ccc(Oc2cc(-c3ncn[nH]3)ncn2)cc1)Nc1ccc(Cl)c(C(F)(F)F)c1 [Example 22, 1-(4-(6-(1H-1,2,4-Triazol-5-yl)pyrimidin-4-yloxy)phenyl)-3-(4-chloro-3-(trifluoromethyl)phenyl)urea] | ≤ 10 | ≤ 10 | ≤ 10 |
| O=C(Nc1cccc(Oc2cc(-c3nnco3)ncn2)c1)Nc1cc(C(F)(F)F)c(Cl)cc1OCCN1CCCC1 [Example 26, 1-(3-(6-(1,3,4-Oxadiazol-2-yl)pyrimidin-4-yloxy)phenyl)-3-(4-chloro-2-(2-(pyrrolidin-1-yl)ethoxy)-5-(trifluoromethyl)phenyl)urea] | ≤ 10 | ≤ 10 | ≤ 10 |
| CN(C)CCNc1nc(-c2cc(Oc3cccc(NC(=O)Nc4ccc(Cl)c(C(F)(F)F)c4)c3)ncn2)cs1 [Example 50, 1-(4-Chloro-3-(trifluoromethyl)phenyl)-3-(3-(6-(2-(2-(dimethylamino)ethylamino)thiazol-4-yl)pyrimidin-4-yloxy)phenyl)urea] | ≤ 10 | ≤ 10 | ≤ 10 |
| Cn1cc(-c2nccc(Oc3cccc(NC(=O)Nc4ccc(OC(F)(F)F)cc4)c3)n2)cn1 [Example 79, 1-(3-(2-(1-Methyl-1H-pyrazol-4-yl)pyrimidin-4-yloxy)phenyl)-3-(4-(trifluoromethoxy)phenyl)urea] | ≤ 10 | ≤ 10 | ≤ 10 |
| Cn1cc(-c2cc(Oc3cccc(NC(=O)Nc4ccc(C(F)(F)F)cc4F)c3)ncn2)cn1 [Example 91, 1-(2-Fluoro-4-(trifluoromethyl)phenyl)-3-(3-(6-(1-methyl-1H-pyrazol-4-yl)pyrimidin-4-yloxy)phenyl)urea] | ≤ 10 | ≤ 10 | ≤ 10 |
| Cn1cc(-c2nccc(Oc3cccc(NC(=O)Nc4cccc(OC(F)(F)F)c4)c3)n2)cn1 [Example 83, 1-(3-(2-(1-Methyl-1H-pyrazol-4-yl)pyrimidin-4-yloxy)phenyl)-3-(3-(trifluoromethoxy)phenyl)urea] | ≤ 10 | ≤ 10 | ≤ 10 |
| O=C(Nc1cccc(Oc2cc(-c3nc(C(F)(F)F)c[nH]3)ncn2)c1)Nc1ccc(Cl)c(C(F)(F)F)c1 [Example 74, 1-(4-Chloro-3-(trifluoromethyl)phenyl)-3-(3-(6-(4-(trifluoromethyl)-1H-imidazol-2-yl)pyrimidin-4-yloxy)phenyl)urea] | ≤ 10 | ≤ 10 | > 10 |
| CN1CCC(OCc2cc(NC(=O)Nc3ccc(Oc4ccnc(-c5nnco5)c4)cc3)cc(C(F)(F)F)c2)CC1 [Example 47, 1-(4-(2-(1,3,4-Oxadiazol-2-yl)pyridin-4-yloxy)phenyl)-3-(3-((1-methylpiperidin-4-yloxy)methyl)-5-(trifluoromethyl)phenyl)urea] | ≤ 10 | ≤ 10 | ≤ 10 |
| Cc1nn(C)c(C)c1-c1cc(Oc2ccc(NC(=O)Nc3ccc(Cl)c(C(F)(F)F)c3)cc2)ncn1 [Example 70, 1-(4-Chloro-3-(trifluoromethyl)phenyl)-3-(4-(6-(1,3,5-trimethyl-1H-pyrazol-4-yl)pyrimidin-4-yloxy)phenyl)urea] | ≤ 10 | > 10 | > 10 |
| O=C(Nc1cccc(Oc2cc(-c3nnco3)ncn2)c1)Nc1ccc(C(F)(F)F)c(Cl)c1 [Example 48, 1-(3-(6-(1,3,4-Oxadiazol-2-yl)pyrimidin-4-yloxy)phenyl)-3-(3-chloro-4-(trifluoromethyl)phenyl)urea] | ≤ 10 | ≤ 10 | ≤ 10 |
| CN1CCN(Cc2cc(NC(=O)Nc3cccc(Oc4ccnc(-c5nnco5)c4)c3)cc(C(F)(F)F)c2)CC1 [Example 38, 1-(3-(2-(1,3,4-Oxadiazol-2-yl)pyridin-4-yloxy)phenyl)-3-(3-((4-methylpiperazin-1-yl)methyl)-5-(trifluoromethyl)phenyl)urea] | ≤ 10 | ≤ 10 | ≤ 10 |
| NC(=O)Cn1ccc(-c2cc(Oc3cccc(NC(=O)Nc4ccc(Cl)c(C(F)(F)F)c4)c3)ncn2)n1 [Example 59, 2-(3-(6-(3-(3-(4-Chloro-3-(trifluoromethyl)phenyl)ureido)phenoxy)pyrimidin-4-yl)-1H-pyrazol-1-yl)acetamide] | ≤ 10 | ≤ 10 | ≤ 10 |
| COCCOc1ccc(NC(=O)Nc2ccc(Oc3cc(-c4nnco4)ncn3)cc2)cc1C(F)(F)F [Example 53, 1-(4-(6-(1,3,4-Oxadiazol-2-yl)pyrimidin-4-yloxy)phenyl)-3-(4-(2-methoxyethoxy)-3-(trifluoromethyl)phenyl)urea] | ≤ 10 | > 10 | ≤ 10 |
| Cn1cc(-c2cc(Oc3cc(NC(=O)Nc4ccc(Cl)c(C(F)(F)F)c4)c(F)cc3F)ncn2)cn1 [Example 57, 1-(4-Chloro-3-(trifluoromethyl)phenyl)-3-(2,4-difluoro-5-(6-(1-methyl-1H-pyrazol-4-yl)pyrimidin-4-yloxy)phenyl)urea] | ≤ 10 | ≤ 10 | ≤ 10 |
| O=C(Nc1cccc(Oc2cc(-c3ncno3)ncn2)c1)Nc1ccc(Cl)c(C(F)(F)F)c1 [Example 15, 1-(3-(6-(1,2,4-oxadiazol-5-yl)pyrimidin-4-yloxy)phenyl)-3-(4-chloro-3-(trifluoromethyl)phenyl)urea] | ≤ 10 | ≤ 10 | ≤ 10 |
| O=C(Nc1cccc(Oc2cc(-c3ccn[nH]3)ncn2)c1)Nc1ccc(Cl)c(C(F)(F)F)c1 [Example 40, 1-(3-(6-(1H-Pyrazol-5-yl)pyrimidin-4-yloxy)phenyl)-3-(4-chloro-3-(trifluoromethyl)phenyl)urea] | ≤ 10 | ≤ 10 | ≤ 10 |
| CN(C(=O)Nc1cccc(Oc2ccnc(-c3nnco3)c2)c1)c1ccc(Cl)c(C(F)(F)F)c1 [Example 109, 3-(3-(2-(1,3,4-Oxadiazol-2-yl)pyridin-4-yloxy)phenyl)-1-(4-chloro-3-(trifluoromethyl)phenyl)-1-methylurea] | > 10 | ≤ 10 | > 10 |
| O=C(Nc1ccc(Oc2ccnc(-c3ncon3)n2)cc1)Nc1ccc(Cl)c(C(F)(F)F)c1 [Example 7, 1-(4-(2-(1,2,4-Oxadiazol-3-yl)pyrimidin-4-yloxy)phenyl)-3-(4-chloro-3-(trifluoromethyl)phenyl)urea] | – | > 10 | – |
| NC(=O)Cn1cc(-c2cc(Oc3cccc(NC(=O)Nc4ccc(Cl)c(C(F)(F)F)c4)c3)ncn2)cn1 [Example 55, 2-(4-(6-(3-(3-(4-Chloro-3-(trifluoromethyl)phenyl)ureido)phenoxy)pyrimidin-4-yl)-1H-pyrazol-1-yl)acetamide] | – | ≤ 10 | ≤ 10 |

— patent publication US20070155764A1, “NOVEL SUBSTITUTED PYRIMIDINYLOXY UREAS USEFUL AS INHIBITORS OF PROTEIN KINASES” (KALYPSYS, INC., priority 2005, published 2007)
